In publication PMC10247784, “Physiological activation of human and mouse bitter taste receptors by bile acids” (Communications Biology, 2023):
Where “and” joins values, the source holds several entries; their conditions need not be identical. Equal entries are not always repeated.

What was measured:
[1] = target: T1, mouse Tas2r123 (Mus musculus, UniProt P59528); assay: Calcium imaging assay (FLIPR), HEK293T-Gα16gust44 cells transfected with mouse Tas2r123; type: cell-based; details: for Δ F/F: Tas2r123; for Activation threshold concentration Tas2r123: p < 0.01 vs empty vector
T1 construct: expressed in transfected cells; host or cells: HEK293T-Gα16gust44
T1 sequence (P59528 1-333): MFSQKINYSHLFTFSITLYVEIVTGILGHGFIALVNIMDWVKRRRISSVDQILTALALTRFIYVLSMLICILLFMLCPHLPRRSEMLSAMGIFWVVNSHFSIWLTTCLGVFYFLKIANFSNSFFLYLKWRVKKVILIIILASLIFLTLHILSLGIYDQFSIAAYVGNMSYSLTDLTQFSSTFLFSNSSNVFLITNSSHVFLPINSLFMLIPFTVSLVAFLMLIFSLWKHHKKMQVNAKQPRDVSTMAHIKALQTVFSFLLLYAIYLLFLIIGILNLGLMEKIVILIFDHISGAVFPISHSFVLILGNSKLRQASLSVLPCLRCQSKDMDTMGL
Method: (§1) This set of bile acids was chosen because of their commercial availability in high purities, their diversity within the class of bile acids and their previous detection and quantitation in human blood. Stock solutions were prepared in DMSO.
(§2) As basal growth medium for the HEK293T-Gα16gust44 cell line[17],[59] served Dulbecco’s modified eagle medium (DMEM) (Thermo Fisher Scientific, Darmstadt, Germany) supplemented with 10 % fetal bovine serum (Sigma-Aldrich, Steinheim, Germany), 2 mM L-glutamine (Sigma-Aldrich, Steinheim, Germany), 100 units/ml penicillin (Sigma Aldrich, Steinheim, Germany) and 100 µg/ml streptomycin (Sigma Aldrich, Steinheim, Germany). Growth conditions were 37 °C, 5 % CO2 and saturated air-humidity[60].
(§3) HEK293T-Gα16gust44 cells were seeded on poly-D-lysine (10 µg/ml) coated 96-well plates to reach a confluence of 40-60 % the next day. For transient transfection 150 ng of plasmid DNA containing the receptor of interest and 0.3 µl lipofectamine 2000 (Thermo Fisher Scientific, Darmstadt, Germany) per well were used and transfection took place according to the manual of lipofectamine 2000. […] The empty vector DNA (mock) was transfected as negative control[14],[41].
(§4) Cells were loaded using the calcium-sensitive fluorescent dye Fluo-4-AM (Abcam, Cambridge, Great Britain) in the presence of 2.5 mM probenecid (Sigma-Aldrich, Steinheim, Germany) the day after transfection[13],[41]. 1 h after loading, cells were washed with C1 buffer using a BioTek Cell Washer, incubated in the dark for half an hour and washed again. For automated agonist application and measurement of fluorescence changes, a FLIPR^TETRA device (Molecular Devices, San José, United States) was used. Viability of cells was tested by application of 100 nM Somatostatin 14 (Bachem, Bubendorf, Switzerland)[42].
(§5) Measured data were negative control corrected by subtracting the signal of the mock-transfected cells and exported to Microsoft Excel using the FLIPR software ScreenWorks 4.2. In Microsoft Excel software, standardization of maximum fluorescence intensities to the basal fluorescence and normalization to the buffer-only control was done to calculate the relative fluorescence changes (ΔF/F).
(§6) Initial screening experiments performed in duplicate wells were confirmed by at least one replication and representative traces were selected for display. All dose-response relationships were determined by three independent experiments (biological replicates) performed in duplicates (technical replicates). Threshold concentrations, defined as lowest substance concentrations leading to statistically significant elevated fluorescence changes in receptor-transfected cells compared with empty vector-transfected cells, were determined using SigmaPlot with Student’s t-test to evaluate statistical significance (p < 0.01).

[2] = target: T2, human TAS2R46 (Homo sapiens, UniProt P59540); assay: Calcium imaging assay (FLIPR), HEK293T-Gα16gust44 cells transfected with human TAS2R46; type: cell-based; details: for Efficacy = maximal amplitude (ΔF/F) / Efficacy (maximal amplitude ΔF/F), individual data points / Δ F/F: TAS2R46; for Efficacy = maximal amplitude (ΔF/F) / Efficacy (maximal amplitude ΔF/F), individual data points: bile acids; for Efficacy = maximal amplitude (ΔF/F): mean; for Efficacy (maximal amplitude ΔF/F), individual data points: single replicates; for Activation threshold concentration TAS2R46: lowest concentration with significantly increased fluorescence vs empty vector (p < 0.01); for Efficacy (signal amplitude) versus control stimulus, TAS2R46: highest applied concentrations, control 10 µM strychnine
T2 construct: expressed in transfected cells; host or cells: HEK293T-Gα16gust44
T2 sequence (P59540 1-309): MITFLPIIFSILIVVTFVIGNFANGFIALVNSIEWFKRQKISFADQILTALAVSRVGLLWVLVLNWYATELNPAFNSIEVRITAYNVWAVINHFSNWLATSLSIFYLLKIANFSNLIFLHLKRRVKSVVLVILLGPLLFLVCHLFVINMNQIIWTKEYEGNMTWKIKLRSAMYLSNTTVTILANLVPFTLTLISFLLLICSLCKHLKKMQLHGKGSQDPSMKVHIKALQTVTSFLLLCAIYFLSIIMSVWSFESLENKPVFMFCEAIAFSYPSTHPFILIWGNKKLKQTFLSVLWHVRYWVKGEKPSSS
Method: as §1, §2, §3, §4, §5, §6

Row | SMILES | Δ F/F ([1]; conc. 0,01 mM) | Δ F/F ([1]; conc. 0,1 mM) | Δ F/F ([1]; conc. 0,03 mM) | Δ F/F ([1]; conc. 0,3 mM) | Δ F/F ([1]; conc. 0,001 mM) | Δ F/F ([1]; conc. 0,003 mM) | Activation threshold concentration Tas2r123 [1] [µM] | Efficacy = maximal amplitude (ΔF/F) [2] | Δ F/F ([2]; conc. 0,01 mM) | Δ F/F ([2]; conc. 0,1 mM) | Δ F/F ([2]; conc. 0,03 mM) | Δ F/F ([2]; conc. 0,3 mM) | Δ F/F ([2]; conc. 0,001 mM) | Δ F/F ([2]; conc. 1 mM) | Δ F/F ([2]; conc. 0,003 mM) | Activation threshold concentration TAS2R46 [2] [µM] | further results
1 | C[C@H](CCC(=O)NCC(=O)O)[C@H]1CC[C@H]2[C@@H]3[C@H](O)C[C@@H]4C[C@H](O)CC[C@]4(C)[C@H]3C[C@H](O)[C@]12C [Glycocholic Acid, glycocholic acid] | -0.001074 | -0.0006317 | -0.000632 | -0.001006 | 7.054e-5 | 0.000982 | 30 | 0.0591 | 0.003139 | 0.004292 | 0.007529 | 0.01216 | 0.002929 | 0.0591 | 0.003879 | 1000 | Efficacy (maximal amplitude ΔF/F), individual data points ([2]; listed as GCA): 0.05097 and 0.06295 and 0.06339
2 | C[C@H](CCC(=O)NCCS(=O)(=O)O)[C@H]1CC[C@H]2[C@@H]3[C@H](O)C[C@@H]4C[C@H](O)CC[C@]4(C)[C@H]3C[C@H](O)[C@]12C [Taurocholic Acid, taurocholic acid] | 0.015 | 0.09205 | 0.02651 | 0.1589 | 0.002404 | 0.009262 | 100 | 0.03422 | 0.006451 | 0.007108 | 0.004646 | 0.00491 | 0.003048 | 0.03422 | 0.00216 | 1000 | Efficacy (maximal amplitude ΔF/F), individual data points ([2]; listed as TCA): 0.02095 and 0.04014 and 0.04158
3 | C[C@H](CCC(=O)O)[C@H]1CC[C@H]2[C@@H]3[C@H](O)C[C@@H]4C[C@H](O)CC[C@]4(C)[C@H]3C[C@H](O)[C@]12C [Cholic Acid, cholic acid] |  |  |  |  |  |  | 10 |  |  |  |  |  |  |  |  |  | 
4 | C[C@H](CCC(=O)NCCS(=O)(=O)O)[C@H]1CC[C@H]2[C@@H]3CC[C@@H]4C[C@H](O)CC[C@]4(C)[C@H]3CC[C@]12C [Taurolithocholic Acid, taurolithocholic acid] |  |  |  |  |  |  |  | 0.2226 |  |  |  |  |  |  |  | 0.3 | Efficacy (maximal amplitude ΔF/F), individual data points ([2]; listed as TLCA): 0.2236 and 0.2143 and 0.2299; Efficacy (signal amplitude) versus control stimulus, TAS2R46 [2]: about equal to that obtained for strychnine; Efficacy (signal amplitude) versus control stimulus, TAS2R46 ([2]; listed as TCLA): full agonist; Efficacy (signal amplitude) versus control stimulus, TAS2R46 ([2]; listed as TLCA): significantly higher than that of TCA and GCA and comparable to the control stimulus strychnine
5 | C[C@H](CCC(=O)O)[C@H]1CC[C@H]2[C@@H]3[C@@H](O)C[C@@H]4C[C@H](O)CC[C@]4(C)[C@H]3CC[C@]12C [Ursodeoxycholic Acid, ursodeoxycholic acid] | 0.06526 |  | 0.08617 |  | 0.01545 | 0.01427 | 10 |  |  |  |  |  |  |  |  |  | Δ F/F ([1]; conc. 0,0001 mM): -5.942e-5; Δ F/F ([1]; conc. 0,0003 mM): -0.0007331
6 | C[C@H](CCC(=O)O)[C@H]1CC[C@H]2[C@@H]3CC[C@@H]4C[C@H](O)CC[C@]4(C)[C@H]3C[C@H](O)[C@]12C [Deoxycholic Acid, deoxycholic acid] |  |  |  |  |  |  | 10 |  |  |  |  |  |  |  |  |  | 
